Structures are written as SMILES.

The nature of data set [1]: GC retention time (DB-5MS, GC-APCI); higher = later elution. The method, then:
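Standards of hydrophobic organic contaminants were analysed by GC-APCI (positive mode, dry or wet source conditions) coupled to cyclic ion mobility-QTOF MS. CCS was measured for the base ion (sometimes a fragment ion) in N2 drift gas (one-pass mode, calibrated with a Waters 22-compound mix). 5 mL/min).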

A short description of data set [2]: collision cross section (N2, base ion); higher = larger ion cross section. The method, then:
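Standards of hydrophobic organic contaminants were analysed by GC-APCI (positive mode, dry or wet source conditions) coupled to cyclic ion mobility-QTOF MS. CCS was measured for the base ion (sometimes a fragment ion) in N2 drift gas (one-pass mode, calibrated with a Waters 22-compound mix).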

With `Clc1c(Cl)c(Cl)c(Cl)c(Cl)c1Cl` [Hexachlorobenzene] (APCI source condition: Dry, base ion: M+.), the GC retention time in data set [1] stood at 14.6 min. Besides, the collision cross section in data set [2] was 135.29 Å².

As for `ClC1CCCC(Br)(Br)C(Cl)(C2=CCCC2)C(Cl)(Cl)C1(Cl)Cl` (centres undefined) [Hexachlorocyclopentenyl-dibromocyclooctane] (APCI source condition: Dry, base ion: [M-CH4Cl2Br]+), in data set [1], the GC retention time is 24.4 min. Also, the collision cross section in data set [2] stood at 152.06 Å².

In turn, `c1ccc2c(c1)-c1ccc3ccc4cccc5cc-2c1c3c45` [Indeno(1,2,3-cd)pyrene] (APCI source condition: Dry, base ion: M+.) showed a GC retention time in data set [1] of 27.7 min. The collision cross section in data set [2] is 148.24 Å².

For `ClC1=C(Cl)[C@]2(Cl)[C@H]3[C@H]([C@H]4C=C[C@@H]3C4)[C@@]1(Cl)C2(Cl)Cl` [Isodrin] (APCI source condition: Dry, base ion: M+.), the GC retention time in data set [1] came to 18 min. Moreover, in data set [2], the collision cross section was found to be 150.98 Å².

Consider `Brc1ccc(Oc2ccc(Br)cc2Br)cc1` [PBDE 28] (APCI source condition: Dry, base ion: M+.), for which the GC retention time in data set [1] was 20.1 min. The collision cross section in data set [2] was 154.31 Å².

Take `Brc1cccc(Oc2ccc(Br)c(Br)c2)c1` [PBDE 35] (APCI source condition: Dry, base ion: M+.): in data set [1], the GC retention time was determined as 20.3 min. In data set [2], this compound displayed a collision cross section of 154.86 Å².

In turn, `Brc1ccc(Oc2ccc(Br)cc2Br)c(Br)c1` [PBDE 47] (APCI source condition: Dry, base ion: M+.) displayed a GC retention time in data set [1] of 22.2 min. The compound further had a collision cross section in data set [2] of 162.71 Å².

Consider `Brc1ccc(Oc2cc(Br)ccc2Br)c(Br)c1` [PBDE 49] (APCI source condition: Dry, base ion: M+.), for which the GC retention time in data set [1] was found to be 21.8 min. This compound showed a collision cross section in data set [2] of 163.07 Å².

Consider `Brc1ccc(Oc2ccc(Br)c(Br)c2)c(Br)c1` [PBDE 66] (APCI source condition: Dry, base ion: M+.), for which, in data set [1], the GC retention time is 22.5 min. The compound also yielded a collision cross section in data set [2] of 163.83 Å².

For `Brc1ccc(Oc2ccc(Br)c(Br)c2)cc1Br` [PBDE 77] (APCI source condition: Dry, base ion: M+.), the GC retention time in data set [1] was 23 min. The collision cross section in data set [2] is recorded as 164.62 Å².

In data set [1], `Brc1ccc(Oc2ccc(Br)c(Br)c2Br)c(Br)c1` [PBDE 85] (APCI source condition: Dry, base ion: M+.) returned a GC retention time of 25 min. Besides, the collision cross section in data set [2] was found to be 170.22 Å².

`Brc1ccc(Oc2cc(Br)c(Br)cc2Br)c(Br)c1` [PBDE 99] (APCI source condition: Dry, base ion: M+.): the GC retention time in data set [1] worked out at 24.2 min. Further, the collision cross section in data set [2] came out at 169.31 Å².

For `Brc1ccc(Oc2c(Br)cc(Br)cc2Br)c(Br)c1` [PBDE 100] (APCI source condition: Dry, base ion: M+.), in data set [1], the GC retention time was 23.7 min. Besides, the collision cross section in data set [2] is given as 169.85 Å².

The compound `Brc1cc(Br)c(Oc2cc(Br)c(Br)cc2Br)cc1Br` [PBDE 153] (APCI source condition: Dry, base ion: M+.) returned a GC retention time in data set [1] of 26 min. In addition, the collision cross section in data set [2] amounted to 180.67 Å².

The compound `Brc1cc(Br)c(Oc2cc(Br)c(Br)cc2Br)c(Br)c1` [PBDE 154] (APCI source condition: Dry, base ion: M+.) gave a GC retention time in data set [1] of 25.4 min. Further, the collision cross section in data set [2] is reported as 178.18 Å².

`Brc1cccc(Oc2c(Br)c(Br)c(Br)c(Br)c2Br)c1Br` [PBDE 173] (APCI source condition: Dry, base ion: M+.): the GC retention time in data set [1] came to 30.2 min. This compound yielded a collision cross section in data set [2] of 185.08 Å².

As to `Brc1cc(Br)c(Oc2cc(Br)c(Br)c(Br)c2Br)c(Br)c1` [PBDE 182] (APCI source condition: Dry, base ion: M+.), the GC retention time in data set [1] amounted to 28.4 min. This compound also yielded a collision cross section in data set [2] of 185.51 Å².
